Measured values published in ChEMBL document CHEMBL6087476, “Positive Charge-Concentrated Dimeric Lipopeptides with Enhanced Protease Resistance: A Potential Solution for Systemic Bacterial Infections” (J Med Chem, 2025).
≈ marks a conversion by molar mass, not a printed value.

Legend:
[1] = system: Escherichia coli; assay: Antimicrobial activity against Escherichia coli ATCC 25922 assessed as increase in absorbance incubated for 20 to 22 hrs; type: functional; conditions: time 20-22 hrs
[2] = system: Staphylococcus aureus; assay: Antimicrobial activity against methicillin-resistant Staphylococcus aureus 43300 assessed as increase in absorbance incubated for 20 to 22 hrs; type: functional; conditions: time 20-22 hrs
[3] = system: Staphylococcus aureus; assay: Antimicrobial activity against Staphylococcus aureus 29213 assessed as increase in absorbance incubated for 20 to 22 hrs; type: functional; conditions: time 20-22 hrs
[4] = system: Salmonella typhimurium; assay: Antimicrobial activity against Salmonella typhimurium 7731 assessed as increase in absorbance incubated for 20 to 22 hrs; type: functional, Salmonella enterica subsp. enterica serovar Typhimurium; conditions: Salmonella enterica, time 20-22 hrs
[5] = system: Escherichia coli; assay: Antimicrobial activity against Escherichia coli K99 assessed as increase in absorbance incubated for 20 to 22 hrs; type: functional; conditions: time 20-22 hrs
[6] = system: Staphylococcus aureus; assay: Antimicrobial activity against Staphylococcus aureus 25923 assessed as increase in absorbance incubated for 20 to 22 hrs; type: functional; conditions: time 20-22 hrs
[7] = system: RAW264.7; assay: Cytotoxicity against mouse RAW264.7 cells assessed as cell death measured after 18 to 24 hrs by MTT assay; type: functional; conditions: time 18-24 hrs
[8] = system: Salmonella typhimurium; assay: Antimicrobial activity against Salmonella typhimurium 14028 assessed as increase in absorbance incubated for 20 to 22 hrs; type: functional, Salmonella enterica subsp. enterica serovar Typhimurium; conditions: Salmonella enterica, time 20-22 hrs
[9] = system: HEK-293T; assay: Cytotoxicity against human HEK293T cells assessed as cell death measured after 18 to 24 hrs by MTT assay; type: functional; conditions: time 18-24 hrs
[10] = system: Pseudomonas aeruginosa; assay: Antimicrobial activity against Pseudomonas aeruginosa 27853 assessed as increase in absorbance incubated for 20 to 22 hrs; type: functional; conditions: time 20-22 hrs
[11] = system: Enterococcus faecalis; assay: Antimicrobial activity against Enterococcus faecalis 29212 assessed as increase in absorbance incubated for 20 to 22 hrs; type: functional; conditions: time 20-22 hrs
[12] = Cytotoxicity against porcine IPEC-J2 cells assessed as cell death measured after 18 to 24 hrs by MTT assay; type: functional; conditions: Sus scrofa, time 18-24 hrs
[13] = Hemolytic activity in healthy human RBC assessed as hemolysis incubated for 1 hr by microplate reader; type: toxicity, cell-based; conditions: erythrocyte
[14] = system: Escherichia coli; assay: Antimicrobial activity against Escherichia coli K88 assessed as increase in absorbance incubated for 20 to 22 hrs; type: functional; conditions: time 20-22 hrs
[15] = system: Staphylococcus epidermidis; assay: Antimicrobial activity against Staphylococcus epidermidis 12228 assessed as increase in absorbance incubated for 20 to 22 hrs; type: functional; conditions: time 20-22 hrs
[16] = system: Staphylococcus aureus; assay: Antimicrobial activity against Staphylococcus aureus 11011 assessed as increase in absorbance incubated for 20 to 22 hrs; type: functional; conditions: time 20-22 hrs
[17] = system: Acinetobacter baumannii; assay: Antimicrobial activity against Acinetobacter baumannii AB1901 assessed as increase in absorbance incubated for 20 to 22 hrs; type: functional; conditions: time 20-22 hrs
[18] = system: Pseudomonas aeruginosa; assay: Antimicrobial activity against Pseudomonas aeruginosa 25349 assessed as increase in absorbance incubated for 20 to 22 hrs; type: functional; conditions: time 20-22 hrs
[19] = system: Acinetobacter baumannii; assay: Antimicrobial activity against Acinetobacter baumannii AB1902 assessed as increase in absorbance incubated for 20 to 22 hrs; type: functional; conditions: time 20-22 hrs

Structure (SMILES)	MIC [1]	MIC [2]	MIC [3]	MIC [4]	MIC [5]	MIC [6]	IC10 [7]	MIC [8]	IC10 [9]	MIC [10]	MIC [11]	IC10 [12]	HC10 [13]	MIC [14]	MIC [15]	MIC [16]	MIC [17]	MIC [18]	MIC [19]
CCCCCCCC(=O)NCCCC[C@H](N)C(=O)NCC(=O)NCC(=O)NCC(=O)N[C@H](CCCNC(=N)N)C(=O)N[C@@H](CCCNC(=N)N)C(=O)N[C@@H](CCCNC(=N)N)C(=O)N1CCC[C@H]1C(=O)N[C@@H](CSSC[C@H](NC(=O)[C@@H]1CCCN1C(=O)[C@H](CCCNC(=N)N)NC(=O)[C@H](CCCNC(=N)N)NC(=O)[C@@H](CCCNC(=N)N)NC(=O)CNC(=O)CNC(=O)CNC(=O)[C@@H](N)CCCCNC(=O)CCCCCCC)C(=O)O)C(=O)O	2 µM (≈ 4.45 µg/mL)	32 µM (≈ 71.1 µg/mL)	32 µM (≈ 71.1 µg/mL)	4 µM (≈ 8.89 µg/mL)	4 µM (≈ 8.89 µg/mL)	32 µM (≈ 71.1 µg/mL)	256 µM	4 µM (≈ 8.89 µg/mL)	256 µM	4 µM (≈ 8.89 µg/mL)	64 µM (≈ 142 µg/mL)	256 µM	256 µM	4 µM (≈ 8.89 µg/mL)	64 µM (≈ 142 µg/mL)	–	–	–	–
CCCCCCCCCCCC(=O)NCCCC[C@H](NC(=O)[C@@H](N)CS)C(=O)NCC(=O)NCC(=O)NCC(=O)N[C@H](CCCNC(=N)N)C(=O)N[C@@H](CCCNC(=N)N)C(=O)N[C@@H](CCCNC(=N)N)C(=O)N1CCC[C@H]1C(=O)O	32 µM (≈ 37.4 µg/mL)	64 µM (≈ 74.8 µg/mL)	64 µM (≈ 74.8 µg/mL)	64 µM (≈ 74.8 µg/mL)	64 µM (≈ 74.8 µg/mL)	128 µM (≈ 150 µg/mL)	128 µM	128 µM (≈ 150 µg/mL)	128 µM	32 µM (≈ 37.4 µg/mL)	64 µM (≈ 74.8 µg/mL)	256 µM	128 µM	32 µM (≈ 37.4 µg/mL)	64 µM (≈ 74.8 µg/mL)	–	–	–	–
CCCCCCCC(=O)NCCCC[C@H](NC(=O)[C@@H](N)CSSC[C@H](N)C(=O)N[C@@H](CCCCNC(=O)CCCCCCC)C(=O)NCC(=O)NCC(=O)NCC(=O)N[C@H](CCCNC(=N)N)C(=O)N[C@@H](CCCNC(=N)N)C(=O)N[C@@H](CCCNC(=N)N)C(=O)N1CCC[C@H]1C(=O)O)C(=O)NCC(=O)NCC(=O)NCC(=O)N[C@H](CCCNC(=N)N)C(=O)N[C@@H](CCCNC(=N)N)C(=O)N[C@@H](CCCNC(=N)N)C(=O)N1CCC[C@H]1C(=O)O	8 µM (≈ 17.8 µg/mL)	128 µM (≈ 285 µg/mL)	128 µM (≈ 285 µg/mL)	16 µM (≈ 35.6 µg/mL)	8 µM (≈ 17.8 µg/mL)	128 µM (≈ 285 µg/mL)	256 µM	16 µM (≈ 35.6 µg/mL)	256 µM	16 µM (≈ 35.6 µg/mL)	128 µM (≈ 285 µg/mL)	256 µM	256 µM	8 µM (≈ 17.8 µg/mL)	128 µM (≈ 285 µg/mL)	–	–	–	–
CCCCCCCCCCCC(=O)NCCCC[C@H](N)C(=O)NCC(=O)NCC(=O)NCC(=O)N[C@H](CCCNC(=N)N)C(=O)N[C@@H](CCCNC(=N)N)C(=O)N[C@@H](CCCNC(=N)N)C(=O)N1CCC[C@H]1C(=O)N[C@@H](CSSC[C@H](NC(=O)[C@@H]1CCCN1C(=O)[C@H](CCCNC(=N)N)NC(=O)[C@H](CCCNC(=N)N)NC(=O)[C@@H](CCCNC(=N)N)NC(=O)CNC(=O)CNC(=O)CNC(=O)[C@@H](N)CCCCNC(=O)CCCCCCCCCCC)C(=O)O)C(=O)O	8 µM (≈ 18.7 µg/mL)	32 µM (≈ 74.7 µg/mL)	32 µM (≈ 74.7 µg/mL)	32 µM (≈ 74.7 µg/mL)	32 µM (≈ 74.7 µg/mL)	32 µM (≈ 74.7 µg/mL)	64 µM	32 µM (≈ 74.7 µg/mL)	128 µM	8 µM (≈ 18.7 µg/mL)	32 µM (≈ 74.7 µg/mL)	32 µM	64 µM	16 µM (≈ 37.4 µg/mL)	32 µM (≈ 74.7 µg/mL)	–	–	–	–
CCCCCCCCCCCC(=O)NCCCC[C@H](N)C(=O)NCC(=O)NCC(=O)NCC(=O)N[C@H](CCCNC(=N)N)C(=O)N[C@@H](CCCNC(=N)N)C(=O)N[C@@H](CCCNC(=N)N)C(=O)N1CCC[C@H]1C(=O)N[C@@H](CS)C(=O)O	16 µM (≈ 18.7 µg/mL)	64 µM (≈ 74.8 µg/mL)	64 µM (≈ 74.8 µg/mL)	32 µM (≈ 37.4 µg/mL)	32 µM (≈ 37.4 µg/mL)	64 µM (≈ 74.8 µg/mL)	64 µM	64 µM (≈ 74.8 µg/mL)	128 µM	16 µM (≈ 18.7 µg/mL)	32 µM (≈ 37.4 µg/mL)	32 µM	64 µM	32 µM (≈ 37.4 µg/mL)	64 µM (≈ 74.8 µg/mL)	–	–	–	–
CC[C@H]1OC(=O)[C@H](C)[C@@H](O[C@H]2C[C@@](C)(OC)[C@@H](O)[C@H](C)O2)[C@H](C)[C@@H](O[C@@H]2O[C@H](C)C[C@H](N(C)C)[C@H]2O)[C@](C)(O)C[C@@H](C)C(=O)[C@H](C)[C@@H](O)[C@]1(C)O [ERYTHROMYCIN]	–	–	–	–	–	–	–	–	–	–	–	–	–	–	–	> 64 µM	64 µM (≈ 47 µg/mL)	64 µM (≈ 47 µg/mL)	> 64 µM
CCCCCCCC(=O)NCCCC[C@H](NC(=O)[C@@H](N)CS)C(=O)NCC(=O)NCC(=O)NCC(=O)N[C@H](CCCNC(=N)N)C(=O)N[C@@H](CCCNC(=N)N)C(=O)N[C@@H](CCCNC(=N)N)C(=O)N1CCC[C@H]1C(=O)O	64 µM (≈ 71.2 µg/mL)	128 µM (≈ 142 µg/mL)	128 µM (≈ 142 µg/mL)	128 µM (≈ 142 µg/mL)	128 µM (≈ 142 µg/mL)	128 µM (≈ 142 µg/mL)	256 µM	128 µM (≈ 142 µg/mL)	256 µM	64 µM (≈ 71.2 µg/mL)	128 µM (≈ 142 µg/mL)	256 µM	256 µM	64 µM (≈ 71.2 µg/mL)	128 µM (≈ 142 µg/mL)	–	–	–	–
CCCCCCCC(=O)NCCCC[C@H](N)C(=O)NCC(=O)NCC(=O)NCC(=O)N[C@H](CCCNC(=N)N)C(=O)N[C@@H](CCCNC(=N)N)C(=O)N[C@@H](CCCNC(=N)N)C(=O)N1CCC[C@H]1C(=O)N[C@@H](CS)C(=O)O	32 µM (≈ 35.6 µg/mL)	128 µM (≈ 142 µg/mL)	128 µM (≈ 142 µg/mL)	32 µM (≈ 35.6 µg/mL)	32 µM (≈ 35.6 µg/mL)	128 µM (≈ 142 µg/mL)	256 µM	64 µM (≈ 71.2 µg/mL)	256 µM	8 µM (≈ 8.9 µg/mL)	128 µM (≈ 142 µg/mL)	256 µM	256 µM	32 µM (≈ 35.6 µg/mL)	128 µM (≈ 142 µg/mL)	–	–	–	–
